Experimental data from BindingDB's records for doi:10.1021/jm00072a017 (Farmitalia Carlo Erba, 1993).
pIC50: −log10 of the molar value.

These compounds were tested against T1, Thromboxane-A synthase (Rattus norvegicus, UniProt P49430) (assay: ChEBML_213089).
T1 sequence (P49430 whole entry): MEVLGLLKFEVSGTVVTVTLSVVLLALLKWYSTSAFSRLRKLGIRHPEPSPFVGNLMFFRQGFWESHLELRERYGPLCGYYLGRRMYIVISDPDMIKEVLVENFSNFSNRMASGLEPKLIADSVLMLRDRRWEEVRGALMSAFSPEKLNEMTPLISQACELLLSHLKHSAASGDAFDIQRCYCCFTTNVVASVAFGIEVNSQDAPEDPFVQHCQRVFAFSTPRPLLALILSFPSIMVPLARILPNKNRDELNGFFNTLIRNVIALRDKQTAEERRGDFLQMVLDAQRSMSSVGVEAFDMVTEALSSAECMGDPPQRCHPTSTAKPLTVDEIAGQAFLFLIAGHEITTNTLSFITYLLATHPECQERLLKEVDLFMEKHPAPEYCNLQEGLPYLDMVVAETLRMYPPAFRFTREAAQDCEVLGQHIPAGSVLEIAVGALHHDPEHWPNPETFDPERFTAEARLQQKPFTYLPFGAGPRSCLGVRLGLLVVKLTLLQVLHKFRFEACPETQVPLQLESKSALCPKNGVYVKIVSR
Description: In vitro inhibition of thromboxane B2 production in rat whole blood.

pIC50 | SMILES
< 6.00 | CCOC(=O)C1=C(C)N=C(C)C(C(=O)O)C1c1cccc(-n2ccnc2)c1 (stereo unspecified) [4-(3-Imidazol-1-yl-phenyl)-2,6-dimethyl-1,4-dihydro-pyridine-3,5-dicarboxylic acid monoethyl ester]
< 6.00 | CCOC(=O)C1=C(C)N=C(C)C(C(=O)OCC)C1c1ccc(-n2ccnc2)cc1 (stereo unspecified) [4-(4-Imidazol-1-yl-phenyl)-2,6-dimethyl-1,4-dihydro-pyridine-3,5-dicarboxylic acid diethyl ester]

More lines, now with the values behind:

SMILES | pIC50
CCOC(=O)C1=C(CC)N=C(CC)C(C(=O)OCC)C1c1cccc(-n2ccnc2)c1 (stereo unspecified) [2,6-Diethyl-4-(3-imidazol-1-yl-phenyl)-1,4-dihydro-pyridine-3,5-dicarboxylic acid diethyl ester] | < 6.00
CCOC(=O)C1C(C)=NC(C)=C(C(=O)OCCN(C)Cc2ccccc2)C1c1cccc(-c2cccnc2)c1 (stereo unspecified) [2,6-Dimethyl-4-(3-pyridin-3-yl-phenyl)-1,4-dihydro-pyridine-3,5-dicarboxylic acid 3-[2-(benzyl-methyl-amino)-ethyl] ester 5-ethyl ester] | < 6.00
CC1=NC(C)=C(C(=O)OCC(C)C)C(c2cccc(-c3cccnc3)c2)C1C(=O)OCC(C)C (stereo unspecified) [2,6-Dimethyl-4-(3-pyridin-3-yl-phenyl)-1,4-dihydro-pyridine-3,5-dicarboxylic acid diisobutyl ester] | < 6.00
CCOC(=O)C1=C(C)N=C(C)C(C(=O)OCC)C1c1ccccc1-n1ccnc1 (stereo unspecified) [4-(2-Imidazol-1-yl-phenyl)-2,6-dimethyl-1,4-dihydro-pyridine-3,5-dicarboxylic acid diethyl ester] | < 6.00
